From ChEMBL document CHEMBL1212868, “Synergistic experimental/computational studies on arylazoenamine derivatives that target the bovine viral diarrhea virus RNA-dependent RNA polymerase” (Bioorg Med Chem, 2010)

What was measured:
[1] = test system: Bovine viral diarrhea virus 1; experiment: Antiviral activity against BVDV bearing mutant RdRp infected in […] cells assessed as inhibition of virus-induced cytopathogenicity by MTT assay; format: functional, organism-based; conditions: Bovine viral diarrhea virus isolates and strains
[2] = test system: Bovine viral diarrhea virus 1; experiment: Antiviral activity against BVDV infected in […] cells assessed as inhibition of virus-induced cytopathogenicity by MTT assay; format: functional, organism-based; conditions: Bovine viral diarrhea virus isolates and strains
[3] = Cytotoxicity against […] cells by MTT assay; format: cell-based
[4] = Inhibition of BVDV RNA dependent NS5B polymerase; set-up: species or system Bovine viral diarrhea virus 1
[5] = Selectivity index, ratio of CC50 for […] cells to EC50 for BVDV
[6] = Inhibition of hepatitis C virus RNA dependent NS5B polymerase; set-up: species or system Hepacivirus hominis

| SMILES | EC50 [2] [µM] | further results |
| --- | --- | --- |
| CC(=O)Nc1ccc(-c2nc3cc([N+](=O)[O-])ccc3[nH]2)cc1 | 0.8 | EC50 [1]: > 100 µM; CC50 [3]: > 100 µM |
| CC(=O)Nc1ccc(-c2nc3cc(Cl)c(Cl)cc3[nH]2)cc1 | 1 | EC50 [1]: > 100 µM; CC50 [3]: 58 µM |
| Brc1cccc(/N=N/C2=C3CCCCN3CCC2)c1 | > 10 | – |
| Brc1ccc(/N=N/C2=C3CCCCN3CCC2)cc1 | > 59 | – |
| FC(F)(F)c1cccc(/N=N/C2=C3CCCCN3CCC2)c1 | > 8 | – |
| O=[N+]([O-])c1cccc(/N=N/C2=C3CCCCN3CCC2)c1 | > 100 | – |
| O=[N+]([O-])c1ccc(/N=N/C2=C3CCCCN3CCC2)cc1 | 86 | – |
| Clc1ccc(/N=N/C2=C3CCCCN3CCC2)cc1Cl | > 30 | – |
| FC(F)(F)c1cc(/N=N/C2=C3CCCCN3CCC2)cc(C(F)(F)F)c1 | > 31 | – |
| Fc1ccc(/N=N/C2=C3CCCCN3CCC2)cc1C(F)(F)F | > 100 | – |
| FC(F)(F)c1cc(/N=N/C2=C3CCCCN3CCC2)ccc1Cl | > 35 | – |
| FC(F)(F)c1cc(/N=N/C2=C3CCCCN3CCC2)ccc1Br | 61 | – |
| O=[N+]([O-])c1cc(/N=N/C2=C3CCCCN3CCC2)ccc1Cl | > 18 | – |
| c1ccc2c(/N=N/C3=C4CCCCN4CCC3)cccc2c1 | 6 | – |
| Fc1ccc(/N=N/C2=C3CCCCN3CCC2)cc1 | > 56 | – |
| Clc1ccccc1/N=N/C1=C2CCCCN2CCC1 | > 100 | – |
| Clc1cccc(/N=N/C2=C3CCCCN3CCC2)c1 | > 20 | – |
| Clc1ccc(/N=N/C2=C3CCCCN3CCC2)cc1 | > 60 | – |
| Clc1ccc(/N=N/C2=C3CCCN3CCC2)cc1 | > 30 | – |
| O=[N+]([O-])c1cccc(/N=N/C2=C3CCCN3CCC2)c1 | > 68 | – |
| Clc1ccc(/N=N/C2=C3CCCN3CCC2)cc1Cl | > 67 | – |
| FC(F)(F)c1cc(/N=N/C2=C3CCCN3CCC2)ccc1Cl | > 21 | – |

| SMILES | EC50 [2] [µM] | further results |
| --- | --- | --- |
| c1ccc2c(/N=N/C3=C4CCCN4CCC3)cccc2c1 | 3.5 | – |
| c1ccc2c(/N=N/C3=C4CCCN4CCC3)nncc2c1 | > 100 | – |
| CN1CCC/C1=C\N=N\c1ccc([N+](=O)[O-])cc1 | 19 | – |
| Clc1ccc(/N=N/C=C2\CCCN2Cc2ccccc2)cc1Cl | > 79 | – |
| Nc1ccc(-c2nc3cc([N+](=O)[O-])ccc3[nH]2)cc1 | 1.5 | EC50 [1]: > 79 µM; CC50 [3]: 79 µM |
| COc1ccc(/N=N/C=C2\CCCN2C)cc1 | 18 | – |
| CN1CCC/C1=C\N=N\c1ccc(Cl)c(Cl)c1 | 16 | – |
| CN1C=C(/N=N/c2cccc([N+](=O)[O-])c2)CCC1 | 0.8 | IC50 [4]: 32 µM; Ratio CC50/EC50 [5]: 125; CC50 [3]: > 100 µM; IC50 [6]: 30 µM |
| CN1C=C(/N=N/c2ccccc2)CCC1 | > 100 | – |
| CN1C=C(/N=N/c2ccccc2Cl)CCC1 | 100 | – |
| CN1CCC/C1=C\N=N\c1ccc(F)cc1 | 18 | – |
| CN1C=C(/N=N/c2c(F)c(F)c(F)c(F)c2F)CCC1 | > 100 | – |
| Cc1ccc(/N=N/C2=CN(C)CCC2)cc1 | > 100 | – |
| CN1CCC/C1=C\N=N\c1ccc(Cl)cc1 | 21 | – |
| CN1C=C(/N=N/c2ccc(Cl)c(Cl)c2)CCC1 | 7 | – |
| CN1CCC/C1=C\N=N\c1cccc(Br)c1 | 9 | – |
| CN1CCC/C1=C\N=N\c1ccc(Br)cc1 | 11 | – |
| CN1CCC/C1=C\N=N\c1cccc(C(F)(F)F)c1 | 21 | – |
| Clc1ccc(/N=N/C=C2\CCCN2Cc2ccccc2)cc1 | > 18 | – |
| Cc1ccc(/N=N/C=C2\CCCN2Cc2ccccc2)cc1 | > 22 | – |
| CN1C=C(/N=N/c2cccc(C(F)(F)F)c2)CCC1 | 90 | – |
| CN1C=C(/N=N/c2cccc(Cl)c2)CCC1 | 12 | – |

| SMILES | EC50 [2] [µM] | further results |
| --- | --- | --- |
| CN1C=C(/N=N/c2ccc(Cl)cc2)CCC1 | > 58 | – |
| CN1C=C(/N=N/c2cccc3ccccc23)CCC1 | 5 | IC50 [4]: 28 µM; EC50 [1]: > 100 µM; CC50 [3]: > 100 µM; IC50 [6]: 55 µM |
| CN1CCC/C1=C\N=N\c1c(F)c(F)c(F)c(F)c1F | > 100 | – |
| CN1C=C(/N=N/c2cccc(Br)c2)CCC1 | 19 | – |
| CN1C=C(/N=N/c2ccc(Br)cc2)CCC1 | 60 | – |
| CN1CCC/C1=C\N=N\c1ccccc1 | 10 | – |
| CN1C=C(/N=N/c2ccc(F)c(C(F)(F)F)c2)CCC1 | > 100 | – |
| CN1C=C(/N=N/c2ccc(F)cc2)CCC1 | > 48 | – |
| CN1C=C(/N=N/c2ccc(Cl)c(C(F)(F)F)c2)CCC1 | > 28 | – |
| CN1C=C(/N=N/c2ccc(Cl)c([N+](=O)[O-])c2)CCC1 | > 61 | – |
| CN1CCC/C1=C\N=N\c1ccc(Br)c(C(F)(F)F)c1 | 46 | – |
| CN1CCC/C1=C\N=N\c1cccc([N+](=O)[O-])c1 | 5.5 | – |
| Cc1ccc(/N=N/C=C2\CCCN2C)cc1 | 20 | – |
| CN1CCC/C1=C\N=N\c1cc(C(F)(F)F)cc(C(F)(F)F)c1 | > 36 | – |
| CN1C=C(/N=N/c2cc(C(F)(F)F)cc(C(F)(F)F)c2)CCC1 | > 64 | – |
| CN1C=C(/N=N/c2ccc([N+](=O)[O-])cc2)CCC1 | 11 | – |
| CN1C=C(/N=N/c2ccc(Br)c(C(F)(F)F)c2)CCC1 | 40 | – |
| FC(F)(F)c1cc(/N=N/C=C2\CCCN2Cc2ccccc2)ccc1Cl | > 14 | – |
| C(/N=N/c1ccccc1)=C1/CCCN1Cc1ccccc1 | > 74 | – |
| CN1CCC/C1=C\N=N\c1ccc(F)c(C(F)(F)F)c1 | 100 | – |
| C[C@@]1(O)[C@H](O)[C@@H](CO)O[C@H]1n1cnc2c(=O)[nH]c(N)nc21 [2'-B-METHYL-GUANOSINE] | 1.7 | – |
